Melting point data for 87 compounds are collected here from a melting point compilation (Tetko et al.; mined from patent text by program, amines drawn as free bases though some values may be those of a salt).

Regarding `COc1ccc(/C=C/c2cnccn2)cc1OC1CCCC1`, the melting point (as a rule, the temperature, or range, at which the solid turns liquid) is 81 to 83 °C.

With `CCOC1(OCC)CCC(C#N)(CC#N)CC1`, the melting point lay in the range of 74 to 75 °C.

With `CCCN1CC(=O)C(C(=O)OCC)C1=O` (configuration not stated), the melting point lay within 123 to 125 °C.

The compound `COc1ccc(-c2cc(=O)n(Cc3ccccc3)nc2-c2ccc(OC)cc2)cc1` came in with a melting point of 145 to 146 °C.

In the case of `CN=C1SCC(O)(c2ccc(Cl)c(S(=O)(=O)NCc3cccnc3)c2)N1C` (configuration not stated), the melting point lay within 152 to 153 °C.

Consider `COC(=O)C(Cc1cc(OC)cc(OC)c1)c1ccc(Oc2ccc(CC3SC(=O)NC3=O)cc2)cc1` (configuration not stated), for which the melting point was in the range of 125 to 128 °C.

The compound `Cc1cc(NC(=O)NC(=O)c2c(Cl)cccc2Cl)nc(C)c1-c1ccccc1` had a melting point of 230 to 235 °C.

As for `c1n[nH]c2c1CCc1[nH]ncc1-2`, the melting point lay in the range of 219 to 221 °C.

`CC(CCO)c1ccc(-c2ccccc2)c(F)c1` (configuration not stated) registered a melting point of 72 °C.

In turn, `O=c1[nH]c2ccc(CCN3CCN(c4ncnc5ccccc45)CC3)cc2o1` displayed a melting point of 200 °C.

`NC(=S)Nc1ccccc1-c1ccccc1F` displayed a melting point of 175 to 177 °C.

`CCn1ncc2nc(C(=O)Nc3nccs3)c(-c3ccccc3)nc21` had a melting point of 194 to 196 °C.

In the case of `Cc1nc(C=NN(C)C)c2n1-c1ccc(Cl)cc1C(c1ccccc1Cl)=NC2`, the melting point was 238 to 242 °C.

In turn, `C[C@H](NC(=O)Nc1cccc(CC(=O)O)c1)C(=O)N1[C@@H](c2ccccc2F)SC[C@H]1C(=O)OC(C)(C)C` came in with a melting point of 110 °C.

As for `CC(C)NC(=O)c1nc(-c2cccc(F)c2)c(-c2ccc(=O)n(C(C)C)n2)s1`, the melting point fell in the range of 104 to 106 °C.

In turn, `O=C(NCc1ccccn1)Nc1cc(N2CC(c3cccc(F)c3)CC2=O)ccn1` (configuration not stated) had a melting point of 188 to 189 °C.

Compound `OC1CSC(Oc2cncc(-c3nccs3)c2)C(O)C1O` (configuration not stated) registered a melting point of 204 °C.

Compound `CC(=O)OCC(=O)Nc1cc(-c2ccncc2)c[nH]c1=O` returned a melting point of 267 to 290 °C.

Compound `COc1cc(OCc2ccccn2)ccc1/C=C/C(=O)CC(=O)/C=C/c1cc2ccccc2s1` came in with a melting point of 188 °C.

Take `CCc1nc2c(N)nc3cccnc3c2n1CC1(O)CCN(C(=O)OC(C)(C)C)CC1`: the melting point fell in the range of 233 to 235 °C.

In the case of `NN=CNCCCCNC(=O)[C@@H]1CCCN1C(=O)[C@@H](CCC(N)=O)NS(=O)(=O)c1ccc2ccccc2c1`, the melting point is 72 to 74 °C.

For `O=C(C=C(Cl)Cl)c1cc(F)c(Cl)cc1Cl`, the melting point fell in the range of 64 to 65 °C.

Take `O=C1c2cccc3cc4ccccc4c(c23)C(=O)N1CCCNCCNCCCN1C(=O)c2cccc3cc4ccccc4c(c23)C1=O`: the melting point was 180 °C.

The compound `COC(=O)c1cc(Cl)c(NC(C)=O)c([N+](=O)[O-])c1O` registered a melting point of 166 to 169 °C.

For `COC(=O)c1cc2cc(OC)c(OCCCl)cc2nc1N`, the melting point fell in the range of 145 to 157 °C.

Consider `COc1cc(C(=O)O)ccc1Cn1ccc2ccc(CC(=O)NCC3CCCC3)cc21`, for which the melting point lay within 188 to 189 °C.

On to `CCNC(=S)NS(=O)(=O)c1cc2c(cc1OC)OCCC2CNC(=O)c1cc(Cl)ccc1OC` (configuration not stated), for which the melting point is 196 to 197 °C.

Regarding `CC(C)NC(=O)C1c2cc(NC(=O)c3cc(C(F)(F)F)nn3-c3ncccc3Cl)c(Cl)cc2CC1F` (configuration not stated), the melting point was 98 to 99 °C.

Regarding `CCN(CC)CCNC(=O)c1cccc2cc3cccc(I)c3nc12`, the melting point was in the range of 64 to 66 °C.

Turning to `CCOc1ccc2nc(NC(=O)N(C)C)sc2c1`, the melting point lay within 183 to 186 °C.

`CCC(CCCN)Nc1cc(OC)c(OC)c2c(C)ccnc12` (configuration not stated) registered a melting point of 136 to 137 °C.

In turn, `CNC(=O)Nc1ccc(-c2c[nH]c(=O)cn2)cc1` returned a melting point above 300 °C.

For `CCCCCCCCCCCCCCCCC[C@H](O)C[C@@H]1OC(=O)[C@H]1CC`, the melting point was 80 to 82 °C.

`COc1ccc(S(=O)(=O)Nc2cccnc2Nc2ccccc2O)cc1` yielded a melting point of 154 to 155 °C.

`O=c1ccn(-c2cccc(OC(F)F)c2)nc1-c1ccnn1-c1ccccc1`: the melting point is 159 to 160 °C.

With `O=C1c2ccc(N3CCCC3)c3cc([N+](=O)[O-])cc(c23)C(=O)N1O`, the melting point lay in the range of 290 to 291 °C.

Turning to `Cc1nc(N)nc(N)c1N1CCN(c2ccc(C#N)cc2)CC1`, the melting point is above 300 °C.

For `CCOC(=O)Cn1nc(-c2ccc(OC)cc2)cc(C(=O)NC)c1=O`, the melting point lay in the range of 141 to 142 °C.

For `COc1ccccc1N1CCN(S(=O)(=O)c2ccc(Nc3ccnc4cc(C(F)(F)F)ccc34)cc2)CC1`, the melting point lay in the range of 146 to 148 °C.

Compound `Cn1ccc2cc(C(=O)NN)ccc21` gave a melting point of 140 to 141 °C.

In turn, `COc1cc2ncnc(N3CCN(C(=O)Nc4ccc(N(C)C)cc4)CC3)c2cc1OC` showed a melting point of 252 to 254 °C.

Turning to `CC(=O)c1ccc(-n2c(-c3sc(Nc4ccccc4)nc3C)nc3ccccc3c2=O)cc1`, the melting point is 271 to 273 °C.

As for `Oc1ccc2nc(-c3cccc(Br)c3)oc2c1`, the melting point came to 248 °C.

In turn, `CN[C@@H]1COc2cc(Cl)ccc2O1` showed a melting point of 70 to 71 °C.

As for `CN(C)C1=NC(=O)C(Cc2cccc(-c3ccc(O)c(C4(C)CCCCC4)c3)c2)S1` (configuration not stated), the melting point lay within 108 to 110 °C.

For `O=[N+]([O-])c1ccc(Nc2nc(Cl)nc3nc[nH]c23)cc1`, the melting point is above 270 °C.

Regarding `Cc1c(F)c(Cl)cc2c1c(=O)c(C(=O)O)cn2C1CC1`, the melting point was in the range of 258 to 260 °C.

In turn, `CN(C)Cc1ccc(CSCCN=CNC#N)o1` showed a melting point of 74 to 76 °C.

The compound `CCCc1cc(O)cc2nc(-c3ccc(O)cc3)oc12` returned a melting point of 110 to 112 °C.

In turn, `CCC#CC(C)(C)NC(=O)C(CC)Oc1cncc(Br)c1` (configuration not stated) showed a melting point of 90 to 92 °C.

In the case of `COC(=O)C=Cc1ccc(O)cc1`, the melting point was in the range of 139 to 140 °C.

In turn, `COC(=O)c1cc(-n2cnnc2)c(C(F)(F)F)cc1NC(C)=O` showed a melting point of 180 to 184 °C.

For `O=C(Cc1ccccc1)Nc1ccc(NC(=O)OCc2ccccc2)c(O)c1`, the melting point amounted to 252 °C.

`O=C(O)Cc1cc(Cl)ccc1OCc1ccccc1` showed a melting point of 76 to 77.5 °C.

The compound `COc1ccc(C2=CCN(CCCN3c4cccc5cccc(c45)S3(=O)=O)CC2)cc1` displayed a melting point of 178 °C.

`O=C1C2CCCN2c2ncccc2N1Cc1ccncc1` (configuration not stated) had a melting point of 262 to 265 °C.

For the compound `COc1cc2c(c(OC(C)=O)c1)C1CCC3(C)C(OC(C)=O)CCC3C1CC2` (configuration not stated), the melting point fell in the range of 120 to 121 °C.

The compound `O=C(c1cccnc1)N1CCC(c2ccccc2)=N1` gave a melting point of 87 to 89 °C.

`COc1cc2c(cc1Nc1ncc(Cl)c(Nc3ccccc3-n3cccn3)n1)CCN(CC(=O)N(C)C)CC2` showed a melting point of 66 to 67 °C.

Turning to `O=C(O)CCCC/C=C(\c1ccc(-c2nc(C(=O)NCCCCCOc3ccccc3)co2)cc1)c1cccnc1`, the melting point lay within 42 to 48 °C.

`O=C(c1ccccc1)C(O)C1OC(n2cc(F)c(=O)[nH]c2=O)C(O)(C(=O)c2ccccc2)C1(O)C(=O)c1ccccc1` (configuration not stated) registered a melting point of 210 to 214 °C.

`COc1cc(CCO)cc(OC)c1-c1ccc(C[C@H](NC(=O)c2c(Cl)cccc2Cl)C(=O)OC(C)(C)C)cc1` had a melting point of 96 to 98 °C.

The compound `CN1CCN(c2cc3c(cc2F)c(=O)c(C(=O)O)cn3C2CC2)CC1c1ccsc1` (configuration not stated) came in with a melting point of 230 °C.

The compound `O=[N+]([O-])CC1C2(CCCC1(c1ccccc1)c1ccccc1)OCCO2` (racemic) returned a melting point of 148 °C.

`O=C(O)CCCCCCCCCCSSCCCCCCCCCCC(=O)O` displayed a melting point of 94 °C.

In the case of `CCC(OC(=O)CS(C)(=O)=O)c1ccc(Cl)c2nc3n(c12)CCCN3c1ccc(Cl)cc1Cl` (configuration not stated), the melting point is 187 to 189 °C.

`CC(C)(C)c1cc(-c2nn(CC(F)(F)C(F)F)c3ncccc23)cc(C(C)(C)C)c1O` had a melting point of 105 to 106 °C.

Compound `COc1ccc(C(=O)c2[nH]c3cc(Cl)ccc3c2NC(C)=O)cc1` had a melting point of 137 to 139 °C.

In turn, `O=C(O)CCc1ccccc1Cc1ccc(Cl)cc1` showed a melting point of 107 to 109 °C.

As for `COC[C@H](Cc1ccccc1)NC(=O)[C@@H](CC(=O)O)n1ccc(-c2ccc(-c3ccccc3)cc2)c1`, the melting point is 247 °C.

`C#Cc1cnc2ccc(OC(SC)C(=O)NC(C)(C#C)CO)cc2c1` (configuration not stated): the melting point lay within 149 to 150 °C.

Regarding `CC(=O)OCC(COC(C)=O)OCn1cnc2c(=O)[nH]c(N)nc21`, the melting point was in the range of 237 to 239 °C.

Take `Nc1ncnc2c1cnn2C1CCC(OCC(F)c2ccccc2)C(F)C1` (configuration not stated): the melting point lay within 209 to 211 °C.

For `CCOC=C(C(=O)O)C(=O)C1CC1`, the melting point was 108 to 113 °C.

As to `CCOC(=O)CCCCCOc1c(/C=C/C(=O)CCc2ccccc2)occc1=O`, the melting point was in the range of 38.5 to 40 °C.

In the case of `O=S1(=O)CCN2C=CC=C(c3ccc(Oc4ccc(F)cc4)cc3)C2=N1`, the melting point fell in the range of 266 to 267 °C.

Take `CCCc1c(OCCCC(=O)NCCCCCCc2cccnc2)ccc(C(C)=O)c1O`: the melting point lay in the range of 69 to 71 °C.

Compound `CC1(C)C(Cl)C(=O)C1CC(Cl)(Cl)Cl` (configuration not stated) showed a melting point of 56 to 57 °C.

`CN(C)C1CCC(Nc2nc3cc(Cl)c(Cl)cc3nc2-c2ccncc2)CC1` (configuration not stated) gave a melting point of 183 to 185 °C.

`CC(=O)Nc1cccc(S(=O)(=O)N2[C@H](C)CN(CC(=O)Nc3ccccc3C)C[C@@H]2C)c1` gave a melting point of 236 to 238 °C.

Regarding `CC1CN(C)N(c2cc(Cl)cc(Cl)c2)C(=O)N1` (configuration not stated), the melting point was 129 to 130 °C.

In the case of `Cc1cccc(C)c1OC(=O)[C@H](C)[C@@H](O)C(C)C`, the melting point lay within 58.5 to 59.5 °C.

With `O=C1CC(c2ccc(F)cc2)c2ccccc21` (configuration not stated), the melting point was 120 to 121 °C.

`Cc1nnc(-c2ccc3occ(-c4ccncc4)c3c2)o1` came in with a melting point of 166 to 167 °C.

Regarding `CS(=O)c1cc(CCC(=O)O)nc(-c2nc(=O)c3ccccc3s2)c1` (configuration not stated), the melting point amounted to 266 °C.

With `CC(=O)OC1CSC(Oc2cncc(-c3ccc(N4CCCCC4)cc3)c2)C(OC(C)=O)C1OC(C)=O` (configuration not stated), the melting point worked out at 196 °C.

The compound `CC(C)c1cccc(C(C)C)c1OS(=O)(=O)C(OC(N)=O)c1c(C(C)C)cccc1C(C)C` (configuration not stated) had a melting point of 95 to 101 °C.
